Test results taken from US20240158408A1, “Nitrogen-Containing Heterocyclic Compound, Pharmaceutical Compositions thereof and Use thereof” (280 Bio, Inc., priority 2022, published 2024).

molecular target: PI3Kα (Homo sapiens (Human), UniProt P42336); test: ADP-Glo Kinase Assay, PI3Kα enzyme activity inhibition; conditions: not given
Sequence (P42336 whole entry): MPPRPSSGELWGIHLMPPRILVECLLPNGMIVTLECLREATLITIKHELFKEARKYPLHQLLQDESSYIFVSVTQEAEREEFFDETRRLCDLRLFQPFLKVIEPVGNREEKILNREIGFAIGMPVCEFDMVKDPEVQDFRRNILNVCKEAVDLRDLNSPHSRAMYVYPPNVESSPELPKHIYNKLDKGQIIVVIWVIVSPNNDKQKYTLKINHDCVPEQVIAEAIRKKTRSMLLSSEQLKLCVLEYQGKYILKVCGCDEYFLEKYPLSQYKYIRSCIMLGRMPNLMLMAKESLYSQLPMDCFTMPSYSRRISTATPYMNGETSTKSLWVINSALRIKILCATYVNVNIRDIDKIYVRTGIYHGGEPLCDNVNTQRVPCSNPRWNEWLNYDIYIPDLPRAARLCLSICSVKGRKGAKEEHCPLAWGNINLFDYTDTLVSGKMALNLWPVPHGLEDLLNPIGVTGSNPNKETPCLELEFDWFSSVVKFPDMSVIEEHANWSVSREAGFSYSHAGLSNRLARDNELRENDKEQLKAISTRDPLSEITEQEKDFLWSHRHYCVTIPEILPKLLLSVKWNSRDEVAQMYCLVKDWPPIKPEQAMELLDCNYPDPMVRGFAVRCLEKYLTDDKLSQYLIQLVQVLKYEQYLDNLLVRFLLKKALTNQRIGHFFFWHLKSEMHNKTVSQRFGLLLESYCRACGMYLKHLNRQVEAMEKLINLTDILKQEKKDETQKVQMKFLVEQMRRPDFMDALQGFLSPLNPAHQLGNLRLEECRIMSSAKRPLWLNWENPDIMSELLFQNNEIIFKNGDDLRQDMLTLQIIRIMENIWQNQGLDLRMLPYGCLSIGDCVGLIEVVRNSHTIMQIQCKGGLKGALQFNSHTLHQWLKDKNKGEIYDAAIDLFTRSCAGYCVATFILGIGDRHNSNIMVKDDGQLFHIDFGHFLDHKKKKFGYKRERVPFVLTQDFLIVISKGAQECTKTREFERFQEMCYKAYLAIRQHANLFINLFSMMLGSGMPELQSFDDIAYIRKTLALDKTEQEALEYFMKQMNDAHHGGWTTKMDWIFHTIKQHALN
Sequence (P27986 whole entry partner): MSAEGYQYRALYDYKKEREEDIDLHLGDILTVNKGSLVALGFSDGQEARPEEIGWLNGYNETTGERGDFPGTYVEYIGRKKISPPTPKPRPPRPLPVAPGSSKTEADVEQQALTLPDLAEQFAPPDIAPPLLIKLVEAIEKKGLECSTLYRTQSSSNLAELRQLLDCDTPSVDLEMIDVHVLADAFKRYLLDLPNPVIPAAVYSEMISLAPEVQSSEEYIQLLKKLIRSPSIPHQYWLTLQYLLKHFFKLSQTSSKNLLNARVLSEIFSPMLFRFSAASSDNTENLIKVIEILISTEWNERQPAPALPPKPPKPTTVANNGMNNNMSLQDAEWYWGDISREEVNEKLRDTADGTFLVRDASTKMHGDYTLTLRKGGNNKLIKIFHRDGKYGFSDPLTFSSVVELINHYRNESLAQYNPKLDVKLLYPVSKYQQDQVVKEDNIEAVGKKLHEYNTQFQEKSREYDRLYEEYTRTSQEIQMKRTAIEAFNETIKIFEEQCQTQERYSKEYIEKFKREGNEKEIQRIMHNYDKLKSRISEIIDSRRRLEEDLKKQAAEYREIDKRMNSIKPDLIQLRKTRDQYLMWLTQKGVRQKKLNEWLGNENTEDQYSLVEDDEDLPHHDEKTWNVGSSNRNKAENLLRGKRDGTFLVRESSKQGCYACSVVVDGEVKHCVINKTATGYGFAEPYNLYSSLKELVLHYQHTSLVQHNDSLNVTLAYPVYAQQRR

| SMILES | PI3Kaα IC50 |
| --- | --- |
| CCn1nc2ccc(NC(=O)c3cc(F)cc(C(F)(F)F)c3)c3c2c1C(=O)NC3c1cc(F)ccc1Cl (centres unmarked) [YL115] | +++ (key: +represents IC50<=250 nM; ++ represents 250 nM<IC50<=10 μM; +++ represents IC50>10 μM) |

same assay, conditions: ADP-Glo; ATP 25 μM; PIP2 50 μg/mL; 1 hour at room temperature

| SMILES | PI3Kaα IC50 |
| --- | --- |
| O=C1NC(c2cc(F)ccc2Cl)c2c(Nc3nccc4c(C(F)(F)F)cc(F)cc34)ccc3c2N1CC3 (centres unmarked) [YL050] | ++ (++ represents 250 nM<IC50<=10 μM) |
| C#Cc1cc(NC(=O)c2cc(F)cc(C(F)(F)F)c2)c2c3c1CCN3C(=O)NC2c1cc(F)ccc1Cl (centres unmarked) [YL069] | +++ (+++ represents IC50>10 μM) |
| Cc1ccccc1C1NC(=O)c2cccc3ccc(NC(=O)c4csc5ccccc45)c1c23 (centres unmarked) [YL004] | +++ (+++ represents IC50>10 μM) |
| O=C(Nc1cc(-c2nn(Cc3ccccc3)cc2F)c2c3c1C(c1cc(F)ccc1Cl)NC(=O)N3CC2)c1cc(F)cc(C(F)(F)F)c1 (centres unmarked) [YL061] | +++ (+++ represents IC50>10 μM) |
| O=C(Nc1cc(B(O)O)c2c3c1C(c1cc(F)ccc1Cl)NC(=O)N3CC2)c1cc(F)cc(C(F)(F)F)c1 (centres unmarked) [YL019] | ++ (++ represents 250 nM<IC50<=10 μM) |
| O=C(Nc1cc(N2CC(F)(F)C2)c2c3c1C(c1cc(F)ccc1Cl)NC(=O)N3CC2)c1cc(F)cc(C(F)(F)F)c1 (centres unmarked) [YL012] | ++ (++ represents 250 nM<IC50<=10 μM) |
| O=C1NC(c2cc(F)ccc2Cl)c2c(-c3nc4c(F)cc(C(F)(F)F)cc4[nH]3)ccc3c2N1CC3 (centres unmarked) [YL032] | ++ (++ represents 250 nM<IC50<=10 μM) |
| O=C1NC(c2cc(F)ccc2Cl)c2c(Nc3nccc4c(C(F)(F)F)cc(F)cc34)cc(Br)c3c2N1CC3 (centres unmarked) [YL042] | ++ (++ represents 250 nM<IC50<=10 μM) |
| O=C(Nc1cc(NC(=O)C(F)(F)F)c2c3c1C(c1cc(F)ccc1Cl)NC(=O)N3CC2)c1cc(F)cc(C(F)(F)F)c1 (centres unmarked) [YL009] | ++ (++ represents 250 nM<IC50<=10 μM) |
| Nc1cc(NC(=O)c2cc(F)cc(C(F)(F)F)c2)c2c3c1CCN3C(=O)NC2c1cccc2ccccc12 (centres unmarked) [YL060] | +++ (+++ represents IC50>10 μM) |
| Cc1nc[nH]c1-c1cc(NC(=O)c2cc(F)cc(C(F)(F)F)c2)c2c3c1CCN3C(=O)NC2c1cc(F)ccc1Cl (centres unmarked) [YL068] | ++ (++ represents 250 nM<IC50<=10 μM) |
| Cn1cc(-c2cc(NC(=O)c3cc(F)cc(C(F)(F)F)c3)c3c4c2CCN4C(=O)NC3c2cc(F)ccc2Cl)cn1 (centres unmarked) [YL015] | ++ (++ represents 250 nM<IC50<=10 μM) |
| Cc1cc(-c2cc(NC(=O)c3cc(F)cc(C(F)(F)F)c3)c3c4c2CCN4C(=O)NC3c2cc(F)ccc2Cl)n[nH]1 (centres unmarked) [YL070] | +++ (+++ represents IC50>10 μM) |
| O=C(Nc1cc(Br)c2c3c1C(c1ccccc1)NC(=O)N3CC2)c1cc(F)cc(C(F)(F)F)c1 (centres unmarked) [YL064] | +++ (+++ represents IC50>10 μM) |
| C[C@@H](O)C(=O)Nc1cc(NC(=O)c2cc(F)cc(C(F)(F)F)c2)c2c3c1CCN3C(=O)NC2c1cc(F)ccc1Cl (some centres unmarked) [YL031] | +++ (+++ represents IC50>10 μM) |
| O=C(Nc1cc(-c2ccn[nH]2)c2c3c1C(c1cc(F)ccc1Cl)NC(=O)N3CC2)c1cc(F)cc(C(F)(F)F)c1 (centres unmarked) [YL054] | ++ (++ represents 250 nM<IC50<=10 μM) |
| O=C1NC(c2cc(F)ccc2Cl)c2c(Nc3ncnc4c(Cl)cc(F)cc34)ccc3c2N1CC3 (centres unmarked) [YL052] | +++ (+++ represents IC50>10 μM) |
| O=C(Nc1cc(F)c2c3c1C(c1cc(F)ccc1Cl)NC(=O)N3CC2)c1cc(F)cc(C(F)(F)F)c1 (centres unmarked) [YL021] | ++ (++ represents 250 nM<IC50<=10 μM) |
| O=C(Nc1cc(Br)c2c3c1C(c1cccc(F)c1)NC(=O)N3CC2)c1cc(F)cc(C(F)(F)F)c1 (centres unmarked) [YL062] | +++ (+++ represents IC50>10 μM) |
| O=C(Nc1cc(-c2cnoc2)c2c3c1C(c1cc(F)ccc1Cl)NC(=O)N3CC2)c1cc(F)cc(C(F)(F)F)c1 (centres unmarked) [YL018] | ++ (++ represents 250 nM<IC50<=10 μM) |
| O=C(Nc1cc(-c2c(C(F)(F)F)n[nH]c2C2CC2)c2c3c1C(c1cc(F)ccc1Cl)NC(=O)N3CC2)c1cc(F)cc(C(F)(F)F)c1 (centres unmarked) [YL048] | ++ (++ represents 250 nM<IC50<=10 μM) |
| O=C(Nc1cc(-c2c[nH]c3ncc(C(F)(F)F)cc23)c2c3c1C(c1cc(F)ccc1Cl)NC(=O)N3CC2)c1cc(F)cc(C(F)(F)F)c1 (centres unmarked) [YL036] | ++ (++ represents 250 nM<IC50<=10 μM) |
| O=C(Nc1cc(Br)c2c3c1C(c1ccccc1Cl)NC(=O)N3CC2)c1cc(F)cc(C(F)(F)F)c1 (centres unmarked) [YL066] | +++ (+++ represents IC50>10 μM) |
| C[C@H](O)C(=O)Nc1cc(NC(=O)c2cc(F)cc(C(F)(F)F)c2)c2c3c1CCN3C(=O)NC2c1cc(F)ccc1Cl (some centres unmarked) [YL030] | +++ (+++ represents IC50>10 μM) |
| Cc1cc(NC(=O)c2cc(F)cc(C(F)(F)F)c2)c2c3c1CCN3C(=O)NC2c1cc(F)ccc1Cl (centres unmarked) [YL020] | +++ (+++ represents IC50>10 μM) |

More lines, now with the values ahead:

| PI3Kaα IC50 | SMILES |
| --- | --- |
| +++ (+++ represents IC50>10 μM) | COc1c(-c2cc(NC(=O)c3cc(F)cc(C(F)(F)F)c3)c3c4c2CCN4C(=O)NC3c2cc(F)ccc2Cl)ccc2ncnn12 (centres unmarked) [YL146] |
| +++ (+++ represents IC50>10 μM) | N#Cc1cc(N)ncc1-c1cc(NC(=O)c2cc(F)cc(C(F)(F)F)c2)c2c3c1CCN3C(=O)NC2c1cc(F)ccc1Cl (centres unmarked) [YL152] |
| +++ (+++ represents IC50>10 μM) | N#Cc1ncncc1-c1cc(NC(=O)c2cc(F)cc(C(F)(F)F)c2)c2c3c1CCN3C(=O)NC2c1cc(F)ccc1Cl (centres unmarked) [YL141] |
| +++ (+++ represents IC50>10 μM) | O=C(Nc1cc(-c2ccc3ncnn3c2Br)c2c3c1C(c1cc(F)ccc1Cl)NC(=O)N3CC2)c1cc(F)cc(C(F)(F)F)c1 (centres unmarked) [YL139] |
| +++ (+++ represents IC50>10 μM) | N#Cc1cc(NC(=O)c2cc(F)cc(C(F)(F)F)c2)c2c3c1CCN3C(=O)NC2c1cc(Cl)ccc1Cl (single isomer, unassigned) [YL101-P2] |
| +++ (+++ represents IC50>10 μM) | N#Cc1cc2ncnn2cc1-c1cc(NC(=O)c2cc(F)cc(C(F)(F)F)c2)c2c3c1CCN3C(=O)NC2c1cc(F)ccc1Cl (centres unmarked) [YL153] |
| ++ (++ represents 250 nM<IC50<=10 μM) | N#Cc1ncccc1-c1cc(NC(=O)c2cc(F)cc(C(F)(F)F)c2)c2c3c1CCN3C(=O)NC2c1cc(F)ccc1Cl (centres unmarked) [YL136] |
| +++ (+++ represents IC50>10 μM) | Cn1nc2c(-c3cn[nH]c3F)cc(NC(=O)c3cc(F)cc(C(F)(F)F)c3)c3c2c1C(=O)NC3c1cc(F)ccc1Cl (centres unmarked) [YL113] |
| ++ (++ represents 250 nM<IC50<=10 μM) | N#Cc1cc(N)ccc1-c1cc(NC(=O)c2cc(F)cc(C(F)(F)F)c2)c2c3c1CCN3C(=O)NC2c1cc(F)ccc1Cl (centres unmarked) [YL150] |
| +++ (+++ represents IC50>10 μM) | N#Cc1c(-c2cc(NC(=O)c3cc(F)cc(C(F)(F)F)c3)c3c4c2CCN4C(=O)NC3c2cc(F)ccc2Cl)ccc2[nH]ncc12 (centres unmarked) [YL142] |
| +++ (+++ represents IC50>10 μM) | O=C(Nc1cc(-c2cnc3[nH]cnc3c2Cl)c2c3c1C(c1cc(F)ccc1Cl)NC(=O)N3CC2)c1cc(F)cc(C(F)(F)F)c1 (centres unmarked) [YL147] |
| +++ (+++ represents IC50>10 μM) | O=C(Nc1cc(F)cc(C(F)(F)F)c1)Nc1cc(Br)c2c3c1C(c1cc(F)ccc1Cl)NC(=O)N3CC2 (centres unmarked) [YL122] |

same assay, conditions: PI3Kaα IC50

| SMILES | IC50 [µM] |
| --- | --- |
| Nc1cc(NC(=O)c2cc(F)cc(C(F)(F)F)c2)c2c3c1CCN3C(=O)NC2c1cc(F)ccc1C(F)(F)F (centres unmarked) [YL096] | 0.25 to 10 |

same assay, conditions: PI3Kaα IC50, ADP-Glo; ATP 25 μM; PIP2 50 μg/mL; 1 hour at room temperature

| SMILES | IC50 [µM] |
| --- | --- |
| O=C(Nc1cc(Br)c2c3c1C(c1cc(Cl)ccc1Cl)NC(=O)N3CC2)c1cc(F)cc(C(F)(F)F)c1 (centres unmarked) [YL093] | 0.25 to 10 |
| Nc1cc(NC(=O)c2cc(F)cc(C(F)(F)F)c2)c2c3c1CCN3C(=O)NC2c1cc(Cl)ccc1C(F)(F)F (centres unmarked) [YL095] | 0.25 to 10 |

Second part, the molecule after the results:

| IC50 [µM] | SMILES |
| --- | --- |
| 0.25 to 10 | Nc1cc(Nc2nccc3c(C(F)(F)F)cc(F)cc23)c2c3c1CCN3C(=O)NC2c1cc(F)ccc1Cl (centres unmarked) [YL086] |
| > 10 | Cn1nc2c(C#N)cc(NC(=O)c3cc(F)cc(C(F)(F)F)c3)c3c2c1C(=O)NC3c1cc(F)ccc1Cl (single isomer, unassigned) [YL102-P2] |
| 0.25 to 10 | Nc1cc(-c2nc3c(F)cc(C(F)(F)F)cc3[nH]2)c2c3c1CCN3C(=O)NC2c1cc(F)ccc1Cl (centres unmarked) [YL092] |
| 0.25 to 10 | O=C(Nc1cc(-c2c[nH]cn2)c2c3c1C(c1cc(F)ccc1Cl)NC(=O)N3CC2)c1cc(F)cc(C(F)(F)F)c1 (centres unmarked) [YL074] |
| > 10 | N#Cc1c(-c2cc(NC(=O)c3cc(F)cc(C(F)(F)F)c3)c3c4c2CCN4C(=O)NC3c2cc(F)ccc2Cl)cc(F)c2ncnn12 (centres unmarked) [YL149] |
| 0.25 to 10 | Nc1cc(-c2nc3cc(Cl)c(Cl)cc3[nH]2)c2c3c1CCN3C(=O)NC2c1cc(F)ccc1Cl (centres unmarked) [YL100] |
| > 10 | O=C(Nc1cc(Br)c2c3c1C(c1cc(F)ccc1Cl)NC(=O)N3CC2)c1cc(F)cc(C(F)(F)F)c1 (single isomer, unassigned) [YL079-P1] |
| 0.25 to 10 | O=C(Nc1cc(Br)c2c3c1C(c1cc(F)ccc1Cl)NC(=O)N3CC2)c1cc(F)cc(C(F)(F)F)c1 (single isomer, unassigned) [YL079-P2] |
| > 10 | Cn1nc2c(C#N)cc(NC(=O)c3cc(F)cc(C(F)(F)F)c3)c3c2c1C(=O)NC3c1cc(Cl)ccc1Cl (single isomer, unassigned) [YL111-P2] |
| 0.25 to 10 | Nc1cc(NC(=O)c2cc(F)cc(C(F)(F)F)c2)c2c3c1CCN3C(=O)NC2c1cc(Cl)ccc1Cl (centres unmarked) [YL094] |
| > 10 | N#Cc1cc(NC(=O)c2cc(F)cc(C(F)(F)F)c2)c2c3c1CCN3C(=O)NC2c1cc(Cl)ccc1Cl (single isomer, unassigned) [YL101-P1] |
| 0.25 to 10 | N=C(N)Nc1cc(NC(=O)c2cc(F)cc(C(F)(F)F)c2)c2c3c1CCN3C(=O)NC2c1cc(F)ccc1Cl (centres unmarked) [YL088] |
